Earlier results as cited in patent publication US20180344676A1, “TOPICAL ANALGESIC PAIN RELIEF FORMULATIONS, MANUFACTURE AND METHODS OF USE THEREOF” (priority 2015, published 2018).

Assays:
human TRPM8 (hTRPM8) = human TRPM8 (hTRPM8) (Homo sapiens, UniProt Q7Z2W7)
hTRPV2 = biological target: T1, hTRPV2 (Homo sapiens, UniProt Q9Y5S1)
T1 sequence (Q9Y5S1 1-764): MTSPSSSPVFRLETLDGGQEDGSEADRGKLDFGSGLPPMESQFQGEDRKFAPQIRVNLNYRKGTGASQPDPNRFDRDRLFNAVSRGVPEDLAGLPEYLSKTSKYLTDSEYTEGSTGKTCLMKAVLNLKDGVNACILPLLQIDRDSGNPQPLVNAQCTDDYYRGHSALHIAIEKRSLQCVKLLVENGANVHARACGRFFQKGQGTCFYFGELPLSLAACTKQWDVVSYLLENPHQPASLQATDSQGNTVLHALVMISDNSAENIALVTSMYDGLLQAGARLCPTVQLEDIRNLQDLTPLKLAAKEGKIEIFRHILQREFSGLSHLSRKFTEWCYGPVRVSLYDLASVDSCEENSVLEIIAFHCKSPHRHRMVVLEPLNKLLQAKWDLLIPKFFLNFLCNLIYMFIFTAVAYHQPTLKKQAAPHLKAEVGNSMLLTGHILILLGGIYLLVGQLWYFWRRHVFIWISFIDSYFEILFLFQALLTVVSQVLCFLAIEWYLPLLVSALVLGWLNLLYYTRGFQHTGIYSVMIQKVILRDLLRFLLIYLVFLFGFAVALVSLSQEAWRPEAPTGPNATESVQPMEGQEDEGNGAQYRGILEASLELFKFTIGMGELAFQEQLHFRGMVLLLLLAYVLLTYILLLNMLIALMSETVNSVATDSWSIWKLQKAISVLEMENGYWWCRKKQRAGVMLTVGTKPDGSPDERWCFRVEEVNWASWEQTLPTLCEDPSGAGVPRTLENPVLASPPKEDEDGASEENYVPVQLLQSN

hTRPV1 = hTRPV1 (Homo sapiens, UniProt Q8NER1)
hTRPV1, sequence (Q8NER1 whole entry): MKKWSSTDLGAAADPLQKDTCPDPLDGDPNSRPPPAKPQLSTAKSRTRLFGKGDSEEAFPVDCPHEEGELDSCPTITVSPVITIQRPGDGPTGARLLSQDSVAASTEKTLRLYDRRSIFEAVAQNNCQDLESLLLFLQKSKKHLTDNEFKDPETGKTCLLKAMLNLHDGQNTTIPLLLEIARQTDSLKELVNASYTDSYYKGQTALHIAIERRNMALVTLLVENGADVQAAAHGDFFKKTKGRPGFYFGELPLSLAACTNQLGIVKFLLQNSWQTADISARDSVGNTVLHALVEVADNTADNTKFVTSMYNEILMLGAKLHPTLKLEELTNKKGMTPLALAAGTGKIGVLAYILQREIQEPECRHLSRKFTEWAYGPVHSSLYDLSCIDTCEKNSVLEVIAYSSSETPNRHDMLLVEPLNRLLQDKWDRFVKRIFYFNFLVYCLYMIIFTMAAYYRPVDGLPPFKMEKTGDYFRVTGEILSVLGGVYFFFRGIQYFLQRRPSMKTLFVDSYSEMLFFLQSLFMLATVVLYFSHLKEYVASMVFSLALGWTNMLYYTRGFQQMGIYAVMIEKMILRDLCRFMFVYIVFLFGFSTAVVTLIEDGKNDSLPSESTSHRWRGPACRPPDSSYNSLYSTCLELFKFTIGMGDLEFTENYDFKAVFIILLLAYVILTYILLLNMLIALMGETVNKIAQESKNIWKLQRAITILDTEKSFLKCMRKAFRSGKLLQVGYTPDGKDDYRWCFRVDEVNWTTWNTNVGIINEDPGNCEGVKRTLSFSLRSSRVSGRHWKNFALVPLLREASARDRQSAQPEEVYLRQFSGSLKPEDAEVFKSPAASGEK

pain and itch responses = details: mice
hTRPA1 = hTRPA1 (Homo sapiens, UniProt O75762); details: for inhibition of hTRPA1 activation by menthol and allyl isothiocyanate: compound at 1 mM, menthol 1 mM and allyl isothiocyanate 10 uM
hTRPA1, sequence (O75762 whole entry): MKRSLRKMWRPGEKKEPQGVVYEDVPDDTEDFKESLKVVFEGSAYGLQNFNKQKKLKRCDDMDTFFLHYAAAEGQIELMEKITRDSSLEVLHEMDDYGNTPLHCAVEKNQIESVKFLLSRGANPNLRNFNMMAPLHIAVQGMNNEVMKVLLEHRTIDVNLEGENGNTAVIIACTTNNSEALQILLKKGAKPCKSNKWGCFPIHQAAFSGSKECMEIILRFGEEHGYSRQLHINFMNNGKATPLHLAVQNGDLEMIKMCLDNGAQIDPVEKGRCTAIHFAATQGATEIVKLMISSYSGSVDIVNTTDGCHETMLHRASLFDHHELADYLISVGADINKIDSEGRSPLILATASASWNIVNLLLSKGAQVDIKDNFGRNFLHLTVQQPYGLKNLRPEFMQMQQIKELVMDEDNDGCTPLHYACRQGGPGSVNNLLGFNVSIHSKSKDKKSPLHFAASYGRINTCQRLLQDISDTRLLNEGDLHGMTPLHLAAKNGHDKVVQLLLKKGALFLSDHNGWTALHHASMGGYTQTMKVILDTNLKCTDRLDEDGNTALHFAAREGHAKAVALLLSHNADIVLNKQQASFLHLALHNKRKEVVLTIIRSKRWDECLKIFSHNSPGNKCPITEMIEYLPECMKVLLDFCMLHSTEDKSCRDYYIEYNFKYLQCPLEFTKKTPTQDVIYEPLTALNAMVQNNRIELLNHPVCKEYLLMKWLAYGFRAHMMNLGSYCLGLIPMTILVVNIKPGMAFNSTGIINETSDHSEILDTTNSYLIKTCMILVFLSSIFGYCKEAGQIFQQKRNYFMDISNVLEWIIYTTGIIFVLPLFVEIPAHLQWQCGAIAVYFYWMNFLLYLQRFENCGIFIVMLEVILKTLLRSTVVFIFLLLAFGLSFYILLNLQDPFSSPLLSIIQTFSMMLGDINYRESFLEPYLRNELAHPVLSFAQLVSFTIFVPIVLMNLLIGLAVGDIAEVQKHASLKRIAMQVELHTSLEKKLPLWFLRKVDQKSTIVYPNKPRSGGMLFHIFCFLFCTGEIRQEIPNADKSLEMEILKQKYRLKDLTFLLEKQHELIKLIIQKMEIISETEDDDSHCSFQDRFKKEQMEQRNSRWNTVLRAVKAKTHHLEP

human TRPM8 (hTRPM8), sequence (Q7Z2W7 whole entry): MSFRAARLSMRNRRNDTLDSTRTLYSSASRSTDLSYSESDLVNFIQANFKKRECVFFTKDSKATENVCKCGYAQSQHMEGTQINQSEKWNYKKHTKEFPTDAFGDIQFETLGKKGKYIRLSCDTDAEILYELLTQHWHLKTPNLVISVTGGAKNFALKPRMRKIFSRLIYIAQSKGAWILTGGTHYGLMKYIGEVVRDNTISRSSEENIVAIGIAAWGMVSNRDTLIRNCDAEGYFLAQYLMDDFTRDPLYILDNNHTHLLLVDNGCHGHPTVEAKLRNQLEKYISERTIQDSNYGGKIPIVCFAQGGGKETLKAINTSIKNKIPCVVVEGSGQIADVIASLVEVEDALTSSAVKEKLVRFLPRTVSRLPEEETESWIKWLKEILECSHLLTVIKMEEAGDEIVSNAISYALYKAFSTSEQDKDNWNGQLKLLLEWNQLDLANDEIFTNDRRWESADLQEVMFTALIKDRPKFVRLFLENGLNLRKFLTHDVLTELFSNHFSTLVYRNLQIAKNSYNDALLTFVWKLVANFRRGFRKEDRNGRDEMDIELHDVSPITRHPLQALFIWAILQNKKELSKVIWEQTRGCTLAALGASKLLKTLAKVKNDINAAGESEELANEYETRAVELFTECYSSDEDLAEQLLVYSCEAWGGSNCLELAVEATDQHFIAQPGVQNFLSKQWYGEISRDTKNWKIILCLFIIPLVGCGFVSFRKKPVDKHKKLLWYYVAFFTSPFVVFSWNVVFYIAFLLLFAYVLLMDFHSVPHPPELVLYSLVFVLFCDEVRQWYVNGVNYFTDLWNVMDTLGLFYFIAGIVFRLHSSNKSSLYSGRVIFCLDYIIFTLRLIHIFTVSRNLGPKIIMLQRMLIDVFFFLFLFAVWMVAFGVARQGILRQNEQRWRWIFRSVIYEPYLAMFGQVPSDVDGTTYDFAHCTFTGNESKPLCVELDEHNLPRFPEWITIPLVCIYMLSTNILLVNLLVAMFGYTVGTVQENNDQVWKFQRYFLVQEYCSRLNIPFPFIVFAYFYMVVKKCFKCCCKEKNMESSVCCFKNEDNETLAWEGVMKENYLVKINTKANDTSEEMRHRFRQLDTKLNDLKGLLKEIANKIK

Compound	activation of hTRPA1 (hTRPA1)	inhibition of hTRPA1 activation by menthol and allyl isothiocyanate (hTRPA1)	other results
CC12CCC(CC1)C(C)(C)O2 [1,8-cineole]			activation of human TRPM8 (human TRPM8 (hTRPM8)): activates; activation of hTRPV2 (hTRPV2): did no( activate; activation of hTRPV1 (hTRPV1): did no( activate
CCCCCCCC/C=C\CCCCCCCC(=O)O [oleic acid]			pain and itch responses (pain and itch responses): inhibited; TRPV1 activity (TRPV1): inhibited
CC1(C)[C@@H]2CC[C@@]1(C)[C@](C)(O)C2 [2-methylosoborneol]	did not activate	completely inhibited	
CC1(C)C2CCC1(C)C(O)C2 (stereo not shown) [borneol]	did not activate	completely inhibited	
CC12CCC(CC1=O)C2(C)C (stereo not shown) [camphor]	did not activate		
CC12CCC(C1)C(C)(C)C2O (stereo not shown) [fenchyl alcohol]	did not activate	completely inhibited	
O=C1CC2CC[C@H]1C2 [norcamphor]	did not activate		
